Reference: ChEMBL document CHEMBL1201861, “Genomics of Drug Sensitity in Cancer screening data, Wellcome Trust Sanger Institute”

Legend:
DMS-153 = experiment: cells; assay type: functional, cell-based, Homo sapiens; conditions: Homo sapiens, DMS-153
Description: SANGER: Inhibition of human DMS-153 cell growth in a cell viability assay.

DMS-79 = experiment: cells; assay type: functional, cell-based, Homo sapiens; conditions: Homo sapiens, DMS-79
Description: SANGER: Inhibition of human DMS-79 cell growth in a cell viability assay.

Daudi = experiment: cells; assay type: functional, cell-based, Homo sapiens; conditions: Homo sapiens, Daudi;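 note: growth inhibition of Daudi cells, read out by a viability assay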
Description: SANGER: Inhibition of human Daudi cell growth in a cell viability assay.

EC-GI-10 = experiment: cells; assay type: functional, cell-based, Homo sapiens; conditions: Homo sapiens, EC-GI-10
Description: SANGER: Inhibition of human EC-GI-10 cell growth in a cell viability assay.

IM-9 = experiment: SANGER: Inhibition of human IM-9 cell growth in a cell viability assay.; assay type: functional, cell-based; conditions: Homo sapiens, IM-9
L-540 = experiment: cells; assay type: functional, cell-based, Homo sapiens; conditions: Homo sapiens, L-540;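 note: growth inhibition of the human L-540 cell line, read out with a viability assay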
Description: SANGER: Inhibition of human L-540 cell growth in a cell viability assay.

LP-1 = experiment: cells; assay type: functional, cell-based, Homo sapiens; conditions: Homo sapiens, LP-1;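 note: growth inhibition of human LP-1 cells, with the read-out taken from a cell viability assay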
Description: SANGER: Inhibition of human LP-1 cell growth in a cell viability assay.

NCI-H1436 = experiment: cells; assay type: functional, cell-based, Homo sapiens; conditions: Homo sapiens, NCI-H1436;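 note: growth suppression of human NCI-H1436 cells, determined with a cell viability readout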
Description: SANGER: Inhibition of human NCI-H1436 cell growth in a cell viability assay.

NCI-H187 = experiment: cells; assay type: functional, cell-based, Homo sapiens; conditions: Homo sapiens, NCI-H187;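 note: growth inhibition of NCI-H187 cells, read out as cell viability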
Description: SANGER: Inhibition of human NCI-H187 cell growth in a cell viability assay.

NCI-H345 = experiment: cells; assay type: functional, cell-based, Homo sapiens; conditions: Homo sapiens, NCI-H345;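 note: growth inhibition of NCI-H345 cells measured with a cell viability assay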
Description: SANGER: Inhibition of human NCI-H345 cell growth in a cell viability assay.

SNU-16 = experiment: cells; assay type: functional, cell-based, Homo sapiens; conditions: Homo sapiens, SNU-16;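 note: growth inhibition of human SNU-16 cells, determined with a cell viability readout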
Description: SANGER: Inhibition of human NCI-SNU-16 cell growth in a cell viability assay.

OPM-2 = experiment: cells; assay type: functional, cell-based, Homo sapiens; conditions: Homo sapiens, OPM-2;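 note: growth of OPM-2 cells measured with a viability assay, IC50 for suppression of proliferation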
Description: SANGER: Inhibition of human OPM-2 cell growth in a cell viability assay.

REH = experiment: cells; assay type: functional, cell-based, Homo sapiens; conditions: Homo sapiens, REH;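 note: growth inhibition of REH cells determined with a cell viability read-out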
Description: SANGER: Inhibition of human REH cell growth in a cell viability assay.

RPMI 8402 = experiment: SANGER: Inhibition of human RPMI-8402 cell growth in a cell viability assay.; assay type: functional, cell-based; conditions: Homo sapiens, RPMI 8402
SIG-M5 = experiment: cells; assay type: functional, cell-based, Homo sapiens; conditions: Homo sapiens, SIG-M5;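 note: cell viability assay read-out, measuring how strongly growth of cultured human SIG-M5 cells is inhibited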
Description: SANGER: Inhibition of human SIG-M5 cell growth in a cell viability assay.

SK-MM-2 = experiment: cells; assay type: functional, cell-based, Homo sapiens; conditions: Homo sapiens, SK-MM-2;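 note: growth inhibition of human SK-MM-2 cells, read out with a cell viability assay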
Description: SANGER: Inhibition of human SK-MM-2 cell growth in a cell viability assay.

SNU-C1 = experiment: cells; assay type: functional, cell-based, Homo sapiens; conditions: Homo sapiens, SNU-C1;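 note: growth inhibition of SNU-C1 human cells, read out by a cell viability assay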
Description: SANGER: Inhibition of human SNU-C1 cell growth in a cell viability assay.

SUP-T1 = experiment: cells; assay type: functional, cell-based, Homo sapiens; conditions: Homo sapiens, SUP-T1;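 note: growth inhibition of human SUP-T1 cells, read out as cell viability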
Description: SANGER: Inhibition of human SUP-T1 cell growth in a cell viability assay.

TALL-1 = experiment: cells; assay type: functional, cell-based, Homo sapiens; conditions: Homo sapiens, TALL-1;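 note: growth inhibition of cultured human TALL-1 cells, read out by a cell viability assay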
Description: SANGER: Inhibition of human TALL-1 cell growth in a cell viability assay.

BC-3 = experiment: cells; assay type: functional, cell-based, Homo sapiens; conditions: Homo sapiens, BC-3;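 note: cell viability assay measuring growth inhibition of human BC-3 cells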
Description: SANGER: Inhibition of human BC-3 cell growth in a cell viability assay.

TUR = experiment: cells; assay type: functional, cell-based, Homo sapiens; conditions: Homo sapiens, TUR;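 note: growth inhibition of human TUR cells, read out with a cell viability assay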
Description: SANGER: Inhibition of human TUR cell growth in a cell viability assay.

HCC 2998 = experiment: cells; assay type: functional, cell-based; conditions: Homo sapiens;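 note: growth inhibition of human HCC2998 cells, measured with a cell viability read-out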
Description: SANGER: Inhibition of human HCC2998 cell growth in a cell viability assay.

Row | SMILES | IC50 (DMS-153) [nM] | IC50 (DMS-79) [nM] | IC50 (Daudi) [nM] | IC50 (EC-GI-10) [nM] | IC50 (IM-9) [nM] | IC50 (L-540) [nM] | IC50 (LP-1) [nM] | IC50 (NCI-H1436) [nM] | IC50 (NCI-H187) [nM] | IC50 (NCI-H345) [nM] | IC50 (SNU-16) [nM] | IC50 (OPM-2) [nM] | IC50 (REH) [nM] | IC50 (RPMI 8402) [nM] | IC50 (SIG-M5) [nM] | IC50 (SK-MM-2) [nM] | IC50 (SNU-C1) [nM] | IC50 (SUP-T1) [nM] | IC50 (TALL-1) [nM] | IC50 (BC-3) [nM] | further results
1 | C=CC(=O)N1CCCC(Nc2nc(Nc3ccc(N(C)C(=O)CC)cc3)nc3[nH]cnc23)C1 (stereo unspecified) | > 10200 | > 10200 | > 10200 | > 10200 | > 10200 | > 10200 | > 10200 | > 10200 | > 10200 | > 10200 | > 10200 | > 10200 | > 10200 | > 10200 | > 10200 | > 10200 | > 10200 | > 10200 | > 10200 | 9060 | IC50 (TUR): > 10200 nM
2 | COc1ccc(N(C(=O)Oc2c(C)cccc2C)c2ccnc(Nc3ccc(N4CCN(C)CC4)cc3)n2)c(OC)c1 | > 5120 | > 5120 | 714 | > 5120 | > 5120 | > 5120 | > 5120 | > 5120 | > 5120 | > 5120 | 15.7 | > 5120 | > 5120 | > 5120 | > 5120 | > 5120 | > 5120 | > 5120 | > 5120 | > 5120 | IC50 (TUR): > 5120 nM
3 | Cc1cc(N2CCOCC2)cc2[nH]c(-c3c(NC[C@@H](O)c4cccc(Cl)c4)cc[nH]c3=O)nc12 | > 5120 | > 5120 | > 5120 | > 5120 | > 5120 | > 5120 | > 5120 | > 5120 | 2340 | > 5120 | 873 | 525 | > 5120 | > 5120 | 323 | 630 | 2540 | > 5120 | > 5120 | 4340 | IC50 (TUR): > 5120 nM
4 | NC(=O)c1cccc(-c2cc(Nc3ccc(OC(F)(F)F)cc3)ncn2)c1 | > 1280 | > 1280 | > 1280 | > 1280 | > 1280 | > 1280 | > 1280 | > 1280 | > 1280 | > 1280 | > 1280 | > 1280 | > 1280 | > 1280 | > 1280 | > 1280 | > 1280 | > 1280 | > 1280 | > 1280 | IC50 (TUR): > 1280 nM
5 | CC(C)C[C@H](NC(=O)[C@H](Cc1ccccc1)NC(=O)c1cnccn1)B(O)O [BORTEZOMIB] | > 20 | > 20 | 1.22 | > 20 | > 20 | 1.37 | > 20 | 17 | > 20 | 7.2 | 7.65 | 1.33 | > 20 | 3.5 | > 20 | 1.09 | > 20 | > 20 | > 20 | 6.61 | IC50 (HCC 2998): 0.412 nM; IC50 (TUR): > 20 nM
